Experimental data published in US20230330060A1, “COMPOUNDS FOR TREATMENT OF HEART FAILURE” (Sulfateq B.V., priority 2020, published 2023).

Columns and labels:
[1] = system: H9C2 cardiomyocytes; assay: Quantification of phenylephrine-induced EGFP synthesis as surrogate for cell size (hypertrophy); type: cell-based, rat
Description: Rat H9C2 cardiomyoblasts (ATCC CRL-1446) were maintained in DMEM medium containing 10% fetal bovine serum and 1% Penicillin-Streptomycin solution (Sigma-Aldrich) and passaged when the cultures reach a confluency of 70%. Prior to experiments, H9C2 myoblasts were differentiated to cardiomyocytes by serum reduction (to 1%) and stimulation with 20 nM retinoic acid for 5 days. Differentiated H9C2 cardiomyocytes were seeded at 0.6·10^5 cells/cm^2 for all experiments.
H9C2 cardiomyocytes (0.6·10^5 cells/cm2) were infected with CMV-copGPF (MOI 10) in culture medium without serum for 24 h. H9C2 cardiomyocytes were pre-incubated with 30 μM SUL compounds under standard culture conditions for 30 min and then stimulated with phenylephrine (dose range 2·10^−5 to 1·10^−11 M) for an additional period of 24 h. Thereafter H9C2 cardiomyocytes were lysed in 100 μl soft lysis buffer (25 mM Tris, 2 mM Dithiothreitol, 2 mM EDTA, 1% Triton X-100, pH 7.4). per well and fluorescence intensity of the obtained supernatant was recorded in a CLARIOStar Plus plate reader (BMG Labtech) equipped with a FITC filter set (excitation 488 nm with 10 nm bandwidth; emission 515 with a 20 nm bandwidth).
All experiments were performed in triplicate per condition and averaged. Data obtained from two individual experiments were used for evaluation in GraphPad Prism 8.0 (GraphPad Software Inc, Ca). Average H9C2 cardiomyocyte cell size was associated to average EGFP levels using linear regression. Phenylephrine-induced EGFP synthesis was normalized, using baseline levels as 0% and maximum EGFP recordings as 100%. All datasets were normalized to vehicle controls. 4 parameter non-linear regression was used to determine the efficacy of potency of phenylephrine to induce GFP synthesis. The efficacy of SUL compounds to inhibit phenylephrine-induced EGFP synthesis was calculated as 100%-Emax, wherein Emax is the maximal effect evoked by phenylephrine.

[2] = system: doxorubicin-induced heart failure; assay: Cardiac fibrosis (picrosirius red, left-ventricular interstitial fibrosis); type: in vivo, rat; details: doxorubicin rats; SUL-150 via food pellets, prophylaxis or therapeutic group
Description: The SUL-150 solution was sprayed homogeneously over standard food pellets (1.25 kg). […] Food pellets were freshly prepared weekly. With the approximation of 200 mg·kg^-1 SUL-150 in the food pellets and a daily dietary intake of 25 gram for a 350 gram rat, daily dosing of SUL-150 approximates 5 mg·day^-1. Male outbred Wistar rats of 250-300 grams (10-12 weeks old) were kept on a 12 h light/dark cycle and received a standard diet with distilled water ad libitum. Thirty rats were administered with doxorubicin (2 mg·kg^-1) weekly via intraperitoneal injection for 9 consecutive weeks and were left either untreated (standard chow diet, 10 rats), or received a diet supplemented with SUL-150 as prophylaxis (prior to the 1st doxorubicin administration, 10 rats) or therapy (starting after the 6th doxorubicin administration, 10 rats). Sham control rats (8 rats) were administered with saline weekly via intraperitoneal injection for 9 consecutive weeks and received a standard diet. All rats were subjected to cardiac function assessment 12 weeks after the first doxorubicin administration. […] Samples were imaged on a NanoZoomer S60 Digital slide scanner (Hammamatsu Photonics) and left-ventricular interstitial fibrosis (i.e. non-perivascular fibrosis) was quantified using Aperio ImageScope (Leica Biosystems, Nussloch, Germany).

[3] = system: doxorubicin-induced heart failure; assay: Cardiac oxidative stress: lipid peroxidation (TBARS); type: in vivo, rat; details: doxorubicin rats; SUL-150 in prophylaxis or therapeutic regime
Description: (§1) The SUL-150 solution was sprayed homogeneously over standard food pellets (1.25 kg). […] Food pellets were freshly prepared weekly. With the approximation of 200 mg·kg^−1 SUL-150 in the food pellets and a daily dietary intake of 25 gram for a 350 gram rat, daily dosing of SUL-150 approximates 5 mg·day^−1. Male outbred Wistar rats of 250-300 grams (10-12 weeks old) were kept on a 12 h light/dark cycle and received a standard diet with distilled water ad libitum. Thirty rats were administered with doxorubicin (2 mg·kg^−1) weekly via intraperitoneal injection for 9 consecutive weeks and were left either untreated (standard chow diet, 10 rats), or received a diet supplemented with SUL-150 as prophylaxis (prior to the 1st doxorubicin administration, 10 rats) or therapy (starting after the 6th doxorubicin administration, 10 rats). Sham control rats (8 rats) were administered with saline weekly via intraperitoneal injection for 9 consecutive weeks and received a standard diet. All rats were subjected to cardiac function assessment 12 weeks after the first doxorubicin administration. Cardiac tissue samples were homogenized in ddH2O using a TissueRuptor II (Qiagen, Hilden, Germany) followed by sonication at 20 kHz for 3×1 min (Sonopuls 2000, Bandelin, Berlin, Germany) and centrifugation at 14000 g to pellet insoluble proteins. […]

[4] = system: doxorubicin-induced heart failure; assay: Cardiac radical scavenging activity (ABTS-radical decolorization); type: in vivo, rat; details: doxorubicin rats; prophylactic or therapeutic administration of SUL-150
Description: as §1

[5] = system: mitochondrial complex IV (cytochrome c oxidase); assay: Respiratory complex IV activity in mitochondria isolated from H9C2 cardiomyoblasts; type: cell-based, rat
Description: H9C2 cardiomyoblasts were exposed to 1 μM DOX in the presence or absence of 1 μM SUL-150 under standard cell culture conditions for 24 h. Mitochondria were isolated using density gradient centrifugation using the MitoCheck® Mitochondrial Isolation Kit (Cayman Chemical #701010, Ann Arbor, MI) according to manufacturer's instructions and assessed for the activity of mitochondrial complex IV (cytochrome c oxidase) by measuring the rate of oxidation of cytochrome c, which is reflected by an […] in absorbance at 550 nm (Cayman Chemical #700990, Ann Arbor, MI).

Cc1c(C)c2c(c(C)c1O)CC[C@](C)(C(=O)N1CCNCC1)O2 [SUL-150, (R)-(6-hydroxy-2,5,7,8-tetramethylchroman-2-yl)(piperazin-1-yl)methanone]
SUL EGFP Inhibition (%) ([1]; 30 μM SUL compound, calculated as 100%-Emax): 66.49% | Expression of EGFP induced by phenylephrine (FIG. 3) ([1]; preincubation with 30 μM compound): reduced the expression of EGFP | Fibrogenic response in the left ventricle interstitium (collagen deposition), FIG. 4 [2]: blocks this fibrogenic reaction | Cardiac lipid peroxidation products (TBARS), FIG. 5A [3]: mitigates cardiac lipid peroxidation | Cardiac radical scavenging activity, FIG. 5B [4]: remained unaltered | Respiratory complex IV activity, FIG. 7 ([5]; H9C2 cardiomyoblasts co-incubated with doxorubicin and SUL-150, both 1 μM for 24 h): maintains complex IV activity | Respiratory complex IV activity ([5]; untreated control H9C2 cardiomyoblasts, SUL-150 1 μM for 24 h): does not alter the activity of respiratory complex IV
